Measurements from patent US20140187594A1, “DIPHENYL ETHER COMPOUNDS FOR THE TREATMENT OF LIVER, LUNG DISORDERS, DIABETIC COMPLICATIONS AND CARDIOVASCULAR DISEASES” (ORCHID CHEMICALS AND PHARMACEUTICALS LTD, priority 2010, published 2014).

What was measured:
[1] = biological target: T1, Rat lens Aldose reductase (Rattus norvegicus, UniProt P07943); assay: Aldose reductase inhibitory activity; type: biochemical; conditions: rat lens enzyme, 0.2 mM NADPH, pH 6.2, 25° C.
T1 construct: Rat lens Aldose reductase is used; from tissue; host or cells: rat lens
Method: Rat lens Aldose reductase is used. Test compound and/or vehicle is preincubated with 3000 μg/ml enzyme (J. Enzyme Inhib. 1993, 7, 249-256; Biol. Pharm. Bull. 1994, 17, 458-459) and 0.2 mM NADPH in phosphate buffer pH 6.2 for 15 minutes at 25° C. The reaction is initiated by addition of 10 mM DL-glyceraldehyde and incubated for another 20 minutes. Determination of the amount of NADPH remained is read spectrophotometrically. Compounds are screened at 10 μM. Since enzyme activity may change from lot to lot, the concentration used will be adjusted if necessary.

iNOS = iNOS inhibition in LPS challenged cells (anti iNOS antibody); type: cell-based; conditions: 30 μM, one hour preincubation, LPS 1 μg/mL for 6 hours, FIG. 38
From the text: Based on the results obtained in the in-vitro studies, it can be concluded that Compounds A, B and C are moderately potent inhibitors of Aldose Reductase. […] At the end of the assay, cell lysates were probed with anti iNOS antibody. Compound of formula (A) inhibits the iNOS production in these cells (FIG. 38). […] Since iNOS is implicated in the pathology of diabetic complications, it is anticipated that Compound of formula (A) will have a protective effect in the development of neovascularization contributed by elevated iNOS. Inhibits LPS induced TNF-α and IL-6 Inhibition In Vivo: This study was undertaken when the mice are at 10-11 weeks in age. On Day 0 their body weights were measured and they were assigned to two groups of 6 mice each to get similar average group body weights. They were orally administered with either vehicle (deionized water, Group 1) or Compound of formula (A) (50 mg/kg; Group 2) daily between 9:30 and 10:30 AM for 10 days. The body weights were measured on day 3, 7 and 10 of the study before administration of vehicle or drug. On Day 10, the mice were administered LPS at 400 μg/kg, IP. After 1 hour they were orally administered with either vehicle or Compound of formula (A). After another 90 minutes, the mice were euthanized by carbon dioxide asphyxiation. Blood was collected by cardiac puncture and was processed to obtain serum. […]

HC-HF diet fed Hamsters = assay: HC-HF diet fed dyslipidemic hamsters; type: in vivo, Golden Syrian hamsters; conditions: 28 days
Method: Dyslipidemia in hamsters were developed by feeding supranutritional diet with fructose liquid (10%) which simulates features of dyslipidemia in human. These features were treated as mentioned below. Thirty male Golden Syrian hamsters aged 14-16 weeks, body weight ranges between 100-160 g were used for this study. Animals were divided into two groups. First group (n=7) was treated as a normal control and was fed with chow feed (Nutri Lab® Rodent, Tetragon Chemie Pvt. Ltd., Bangalore) and the second group (n=23) was fed with HC-HF diet (in-house made), the composition of which were Corn oil 11.50%, Coconut oil 11.50%, Cholesterol 0.50%, Sodium cholate 0.25% and Nutri Lab® feed 76.25% and animals were provided with 10% fructose in the drinking water. […] During this period, animal body weight was recorded daily. […]
The dyslipidemic model was developed in the protocol as mentioned in experimental 4. […] During this period, animal body weight was recorded daily. […]
(§1) The parameters like Glucose, ALT, AST, TC, TG (Clinical chemistry analyzer Erba XL 300), insulin (Linco®-CA, Product code: EZRMI-13K) and TNFα (GE Healthcare, Amersham, UK. Product code: RPN2718) were measured using commercially available kits. NEFA was measured in serum using commercially available NEFA C kit (Product code No: 279-75401, Wako pure chemical industries ltd., Japan).

[2] = test system: acute alcohol induced hypertriglyceridemic mice; assay: Acute alcohol induced hypertriglyceridemia; type: in vivo, C57BL/6 mice; conditions: (A) 100 mg/kg, disodium salt of (C) 30 mg/kg p.o., seven days, 40% alcohol challenge; FIG. 33
Method: Male C57BL/6 mice aged 6-8 weeks, and body weight ranges between 22-28 g were used for this study. Animals were divided into four groups (n=8) and fed normal chow feed (Nutri Lab® Rodent, Tetragon Chemie Pvt. Ltd., Bangalore) and drinking water. The Group I and Group II animals were served as a normal and disease control treated with vehicle. Group III (n=8) and Group IV (n=8) animals were treated with compound of formula (A) and disodium salts of compound of formula (C) at 100 and 30 mg/kg p.o respectively for seven days. On 7th day one hour post administration of compounds Group II, Group III and Group IV animals were challenged with 40% alcohol (10 ml/kg b.w) p.o. Eighteen hours post challenge animals were bled, plasma separated and used for biochemical parameter analysis.
as §1

- IC50 [1]: 4.07 µM
Compound: COC(=O)[C@@H](N)Cc1ccc(Oc2ccc(CC3SC(=O)NC3=O)cc2)cc1 (stereo partly drawn) [Compound of formula (A), Methyl(2S)-2-amino-3-(4-{4-[(2,4-dioxo-1,3-thiazolidin-5-yl)methyl]phenoxy}phenyl)propanoate]
- iNOS production (iNOS): potent inhibitor of iNOS with activity superior to Rosiglitazone at equal concentrations
- NEFA (HC-HF diet fed Hamsters; 30 and 100 mg/kg p.o., FIG. 15): significant reduction
- plasma TG (HC-HF diet fed Hamsters; (A) 30 and 100 mg/kg, disodium salt of (C) 10 and 30 mg/kg p.o., FIGS. 14 & 29): significant reduction
- plasma TG [2]: significant reduction in TG
